Data reported in US11944661B2, “Pharmaceutical composition containing extract of leaves of Vaccinium bracteatum Thunb. for prevention or treatment of stress disease and depression” (JEONNAM BIOINDUSTRY FOUNDATION, priority 2017, dated 2024).
Counter-ions that a name gives are not always drawn. Like-named read-outs stand apart in the source and are kept apart here.

Assays:
SH-SY5Y cells = assay: Cytotoxicity of the pharmacological inhibitors alone, 24-hour incubation
Method: An experiment was carried out to find out the working signaling pathway responsible for the neuroprotective activity of the Vaccinium bracteatum Thunb. leaf extracts against corticosterone-induced neuronal damage. In this experiment, SH-SY5Y cells were pretreated for 1 hour with wortmanin, rapamycin, H89, and PD98059, which are respective pharmacological inhibitors of the PI3K (phosphoinositide 3-kinase), mTOR, PKA (protein kinase A), and MAPK/ERK kinase pathways and then incubated for 2 hours with the hot-water extracts of Vaccinium bracteatum Thunb. leaves (3 μg/ml). Thereafter, 24 hours of incubation with corticosterone (1 mM) was followed by measuring cell viability through MTT assay.
For use in the experiment, the inhibitors alone were assayed for cytotoxicity.

[1] = system: male ICR mice subjected to chronic restraint stress (CRS); assay: Open field test (OFT) in chronic restraint stress (CRS) mice; type: in vivo; settings: three weeks of CRS; 5 minutes; positive control
Method: Male ICR mice were purchased and subjected to chronic restraint stress (CRS). In this regard, a constant restraint stress was given by immobilizing the mice for 6 hours per day (a.m. 11 to p.m.5) in an acrylic box 20 cm in height and 7 cm in diameter for three weeks. The hot-water extracts of Vaccinium bracteatum Thunb. leaves were orally administered at each dose to the mice daily 30 min before the stress was given at the same time. For the control, the same volume of saline was administered. As a comparative group, escitalopram oxalate, which is an antidepressant, was orally administered. Animal behavior tests were performed the next day after 3 weeks of restraint stress stimulation. The open field test (OFT) was followed by the forced swimming test (FST). After the FST evaluation, whole blood was collected from the mice which were then autopsied to excise the hippocampus and prefrontal cortex. These brain tissues were immediately stored at −70° C. until use in experiments. The open field test (OFT) is an experimental test used to assay locomotor activity levels of animals to determine the anti-anxiety and anti-depressive effects of drugs. An OFT box is an arena having the dimensions of 60 cm diameter×20 cm height with the bottom surface divided into 25 cells. […] In the OFT box, the number of cells which the animal voluntarily crossed for 5 minutes was counted. […]

corticosterone = assay: Serum stress hormone corticosterone level (ELISA) in normal mice after six days of administration; type: in vivo; settings: comparative group, dose not given
Method: After six days of drug administration to mice in a normal state, effects on the level of the stress hormone corticosterone in sera of the mice were measured using the Abnova ELISA kit according to the manufacturer's instruction.

male ICR mice = assay: Forced swimming test (FST) in normal mice after 1 or 6 days of oral administration; type: in vivo; settings: comparative group, dose not given
Method: For use in assaying an antidepressant effect of the Vaccinium bracteatum Thunb. leaf extracts, male ICR mice, 6 weeks of age, were purchased from […], Korea. The animals were acclimated to a certain condition in an animal breeding room (temperature: 22±2° C., humidity: 50±5%, contrast: 12-hour light/12-hour dark cycle) for one week before use. Male ICR mice were orally administered the Vaccinium bracteatum Thunb. leaf extract the present invention while escitalopram oxalate was used as an antidepressant for a comparative group. Oral administration was conducted for 1 or 6 days according to the experiment. In a forced swimming test (FST), which is a pre-swim test on the day before the main test (post-swim), tap water of around 25° C. was poured into a cylindrical water tank (about 20 cm in diameter, 40 cm in height) to the height of 15 cm from the bottom, after which the mice were put thereinto and forced to swim for 15 minutes. Then, the mice were withdrawn from the water, wiped with a dry towel, and returned to the breeding box. After 1 or 6 days of drug administration, the main test (post-swim) was performed and video was taken with forced swimming for 6 minutes with the mice in the cylinder. In the recorded images for the five minutes exclusive of the first one minute, the animal behavior was classified into three types for analysis: the animals were floating in the water, showing a slight movement, with only a part of the upper body including the face exposed on the water face (immobility behavior); the animals were swimming around the cylinder in the horizontal direction while splashing the water with their forepaws and rear paws (swimming behavior); and the animals were making the fierce movement of pulling the paws out of the water, scrapping the wall (climbing behavior). Times for the three movements were measured.

[2] = system: male ICR mice subjected to chronic restraint stress (CRS); assay: Forced swimming test (FST) in chronic restraint stress (CRS) mice; type: in vivo; settings: three weeks of CRS; 10 mg/kg p.o
Method: In a forced swimming test (FST), which is a pre-swim test on the day before the main test (post-swim), tap water of around 25° C. was poured into a cylindrical water tank (about 20 cm in diameter, 40 cm in height) to the height of 15 cm from the bottom, after which the mice were put thereinto and forced to swim for 15 minutes. Then, the mice were withdrawn from the water, wiped with a dry towel, and returned to the breeding box. After 1 or 6 days of drug administration, the main test (post-swim) was performed and video was taken with forced swimming for 6 minutes with the mice in the cylinder. In the recorded images for the five minutes exclusive of the first one minute, the animal behavior was classified into three types for analysis: the animals were floating in the water, showing a slight movement, with only a part of the upper body including the face exposed on the water face (immobility behavior); the animals were swimming around the cylinder in the horizontal direction while splashing the water with their forepaws and rear paws (swimming behavior); and the animals were making the fierce movement of pulling the paws out of the water, scrapping the wall (climbing behavior). Times for the three movements were measured. Male ICR mice were purchased and subjected to chronic restraint stress (CRS). In this regard, a constant restraint stress was given by immobilizing the mice for 6 hours per day (a.m. 11 to p.m.5) in an acrylic box 20 cm in height and 7 cm in diameter for three weeks. The hot-water extracts of Vaccinium bracteatum Thunb. leaves were orally administered at each dose to the mice daily 30 min before the stress was given at the same time. For the control, the same volume of saline was administered. As a comparative group, escitalopram oxalate, which is an antidepressant, was orally administered. Animal behavior tests were performed the next day after 3 weeks of restraint stress stimulation. The open field test (OFT) was followed by the forced swimming test (FST). […]

Question: O=S(=O)(NCCNC/C=C/c1ccc(Br)cc1)c1cccc2cnccc12 [H89] was tested. Which “cytotoxicity of inhibitor alone” value (SH-SY5Y cells) did it give?
Answer: No cytotoxicity

Question: COc1cccc(-c2cc(=O)c3ccccc3o2)c1N [PD98059] was tested. Which “cytotoxicity of inhibitor alone” value (SH-SY5Y cells) did it give?
Answer: No cytotoxicity

Question: With CN(C)CCC[C@@]1(c2ccc(F)cc2)OCc2cc(C#N)ccc21 [escitalopram oxalate] as the compound, how does the “number of crossing (locomotor activity)” value [1] read?
Answer: 182.73±5.60 crossings

Question: And the stress hormone corticosterone in sera (corticosterone)?
Answer: 765 ± 97.5 ng/mL

Question: What about the climbing time (male ICR mice; one-day administration) of the same compound?
Answer: 12.43 ± 3.47 s

Question: What about the immobility time (male ICR mice; one-day administration) of the same compound?
Answer: 194.65 ± 11.55 s

Question: What about the immobility time (male ICR mice; six-day administration) of the same compound?
Answer: 169.65 ± 7.15 s

Question: What about the swimming time (male ICR mice; six-day administration) of the same compound?
Answer: 128.16 ± 6.65 s

Question: And the climbing time [2]?
Answer: 105.23 ± 15.37 s

Question: And the immobility time [2]?
Answer: 154.74 ± 14.80 s

Question: And the swimming time [2]?
Answer: 146.58 ± 14.84 s

Question: How did the “cytotoxicity of inhibitor alone” value (SH-SY5Y cells) turn out when CO[C@H]1C[C@@H]2CC[C@@H](C)[C@@](O)(O2)C(=O)C(=O)N2CCCC[C@H]2C(=O)O[C@H]([C@H](C)C[C@@H]2CC[C@@H](O)[C@H](OC)C2)CC(=O)[C@H](C)/C=C(\C)[C@@H](O)[C@@H](OC)C(=O)[C@H](C)C[C@H](C)/C=C/C=C/C=C/1C [rapamycin] was run?
Answer: No cytotoxicity

Question: Which “cytotoxicity of inhibitor alone” value (SH-SY5Y cells; 24-hour incubation, inhibitor alone) does the source give for COC[C@H]1OC(=O)c2coc3c2[C@@]1(C)C1=C(C3=O)[C@@H]2CCC(=O)[C@@]2(C)C[C@H]1OC(C)=O [wortmanin] here?
Answer: except for the PI3K inhibitor (wortmanin)
